# Tested on: not given
# Settings: not given
row,melting point,Structure (SMILES)
1,177 to 178 °C,"CCN(Cc1cc(Cl)ccc1OCC1CC1)c1ccc(C(N)=O)nn1 [Example 21, 6-[N-(5-Chloro-2-(cyclopropylmethoxy)benzyl)-N-ethylamino]pyridazine-3-carboxamide]"
2,73 to 80 °C,"CCN(Cc1cc(Br)ccc1OCC1CC1)c1ccc(C(=O)O)nn1 [Example 3, 6-[N-(5-Bromo-2-(cyclopropylmethoxy)benzyl)-N-ethylamino]pyridazine-3-carboxylic acid]"
3,119 to 120 °C,"CCN(Cc1cc(Cl)ccc1OCC1CC1)c1ccc(C(=O)O)nn1 [Example 22, 6-[N-(5-Chloro-2-(cyclopropylmethoxy)benzyl)-N-ethylamino]pyridazine-3-carboxylic acid]"
4,190 to 192 °C,"CCN(Cc1cc(Cl)ccc1OCC1CC1)c1ccc(-c2nnn[nH]2)nn1 [Example 23, 5-[6-(N-[5-Chloro-2-cyclopropylmethoxybenzyl]-N-ethylamino)pyridazin-3-yl]tetrazole]"
5,135 to 137 °C,"CCCOc1ccc(Br)cc1CN(CC)c1ccc(C(=O)O)nn1 [Example 18, 6-(N-[5-Bromo-2-propoxybenzyl]-N-ethylamino)pyridazine-3-carboxylic acid]"

# Tested on: EP1 receptors
# Settings: guinea pig ileum, dog fundus, cat trachea, chick ileum; cited from earlier work
row,Structure (SMILES),block of the effect of PGE2 on tissues
1,CC(=O)NNC(=O)N1Cc2ccccc2Oc2ccc(Cl)cc21 [SC-19220],blocks the effect of PGE2 on some tissues such as guinea pig ileum or dog fundus but not on other tissues such as the cat trachea or chick ileum

# Source: patent US6365603B1, “Aromatic compounds and pharmaceutical compositions containing them” (Zeneca Ltd., priority 1995, dated 2002)
